Where a name gives a salt, the structure may show the parent alone.
Assays:
SAM-induced tremors [1] = assay: Effect of farnesylcysteine/prenylcysteine analogs on SAM-induced tremors and PD-like symptoms; type: in vivo, rat; conditions: 20 min
Experimental: (§1) Rats were cannulated for subsequent injections into the lateral ventricle as previously described (Charlton and Mack, 1994). Briefly, each rat was anesthetized with 400 mg/kg of chloral hydrate. A stainless steel guide cannula was stereotaxically placed 1.5 mm lateral and 0.6 mm caudal to the Bregma with the tip extended to the inner surface of the cranium, above the dura mater. At least 2 days following cannulation, injections were made through the cannula into the lateral ventricle with a 26 gauge insertion cannula, pre-measured to descend 5 mm from the surface of the skull into the lateral ventricle. Each injected rat was put in a cage which was then placed on the sensor assembly of the Tremor-Scan Monitor. The recording parameters were set according to the manufacturer's instructions by adjusting the Gain on the instrument to 4 which insured that most of the signals with large or small amplitudes remained within the detection limit or not reduced to the baseline respectively, as viewed on the computer monitoring screen. The noise that could interfere with the SAM-induced tremors is usually of low amplitude and was reduced to baseline levels by this gain setting. This setting was used for all subsequent recording and storage of the vibration signals due to tremor-like activities of the
AFC, FTP and FTS were each suspended in PBS and dissolved by adjusting the pH to 7.4 with NaOH followed by the addition of more PBS to make 0.2 mmol/ml solutions. PBS or each compound, dissolved in 5 mml of solution, was injected into the lateral ventricle of cannulated rats 5 min prior to SAM injections. SAM (1 mmmol in 5 mml of PBS) was injected and the movements recorded over a 20 min period as described above.

rat brain membranes = assay: SAM-dependent methylation of FC analogs by rat brain membranes; type: biochemical; conditions: 60 min; for methylation by rat nerve cell membranes in the presence of [3H-methyl]SAM: 200 mmM analog, 37° C.
Experimental: AFC, FTP and FTS (200 mmM) were each incubated for 60 min with rat brain membranes (240 mmg of protein) at 37° C. in 100 mM Tris-HCl, pH 7.4 containing SAM (10 mmM, 1.3 mmCi [^3H-methyl]-SAM), 5 mM MgSO4 and 0.1 M NaCl in a total incubation volume of 400 mml. The reactions were stopped with 5% TFA and chilled on ice. Hexane (400 mml) was added and the contents of the tubes mixed thoroughly. This was followed by centrifugation at 20,000 g for 2 min. The upper hexane layer was removed and 250 mml analyzed by reversed-phase HPLC on a Whatman column (C18, 4.6×150 mm). Methylated FC analogs were eluted from the column at a rate of 1 ml/min with a 0 to 100% gradient of acetonitrile in 0.1% TFA from the 3rd to the 15th min of each run. This composition was maintained for a further 2 min before re-equilibration of the column for the next sample. Detection was conducted with an online radiochromatographic detection system (INUS β-ram, Tampa, Fla.).

rats [2] = assay: Effect of farnesylcysteine analogs on the movements of rats (Animal Activity Monitor); type: in vivo, rat; conditions: 1 mmmol icv alone or in combination with 1 mmmol of SAM
Experimental: Cannulated rats were injected (icv) with AFC or FTP (1 mmmol, 5 mml) in combination with PBS or 1 mmmol of SAM, injected similarly 5 min after injection of the FC analogs. Their movements were measured in an Animal Activity Monitor (AccuScan Electronics, Inc., Columbus, Ohio) and compared to those of control animals that received PBS.

[3] = tested on: 6-hydroxydopamine-lesioned rats; assay: Amphetamine-induced ipsiversive rotation of 6-hydroxydopamine-lesioned rats (RotoScan Rotometer); type: in vivo, rat
SAM-induced tremors [4] = assay: Effect of L-DOPA, SAH and NADA on SAM-induced tremors; type: in vivo, rat; conditions: for number of tremors / total duration of tremors: 20 min; for effect on the SAM-induced PD-like symptoms: icv before SAM
Experimental: as §1
Cannulated rats were injected either with PBS (5 mml), L-DOPA (1.5 mmmol), SAH (1.0 mmmol) or NADA (1.0 mmmol) followed by an injection of either 0.75 or 1.0 mmmol of SAM. Each compound was dissolved or finely suspended in PBS. They were then monitored for tremors on the Tremor Monitor for a period of 20 min.

rat nerve cell membranes = assay: In vitro association of [3H-methyl]SAM or 3H-MPP+ with rat nerve cell membranes; type: binding; conditions: for effect on association of [3H-methyl]SAM radioactivity with membranes: 100 mmM non-radioactive compound in the incubation mixture; for effect on 3H-MPP+ association with membranes: non-radioactive competitor
Experimental: Rat brain (1.76 g) was homogenized in 20 ml of 50 mM Tris-HCl, pH 7.4 containing 2.5 mM EDTA and 0.02% bovine serum albumin and centrifuged at 900×g for 10 min. The supernatant was transferred and the pellet re-suspended in the same buffer and centrifuged. The 900×g supernatants were combined and centrifuged at 20,000×g for 40 min. The supernatant was removed and the pellet resuspended in 5 ml of buffer, aliquoted and frozen at −70° C. until needed.
To understand whether the behavioral effects of SAM were due to interactions with cellular macromecules, [^3H-methyl]SAM (0.2 mmCi) was incubated with rat nerve cell membranes (30 mmg of protein) at 37° C. At the appropriate incubation periods, the reaction tubes were removed and centrifuged (13,000 rpm, MSE Centaur) for 10 min. The supernatant was discarded and the pellet suspended in scintillation fluid and their total radioactive content determined by scintillation counting.

rats [5] = assay: Tremors and PD-like symptoms induced by icv SAM, recorded on the Tremor-Scan Monitor; type: in vivo, rat
Experimental: as §1
The Tremor Monitor software, which allows for the determination of 1) the signal amplitude, 2) the number of cycles in each activity or episode, 3) the number of activities and 4) the duration of each activity or episode, aided in the storage and subsequent retrieval and analysis of the recorded activity profiles. Analysis of the stored data was achieved by altering the minimum and maximum frequency, amplitude and number of cycles to reflect the unique properties of each kind of movement and thus delineate the SAM-induced tremors from non-tremor activity signals.
The dose-dependent effects of SAM was also determined in cannulated rats injected with 0 (PBS), 0.5, 0.75 and 1.0 mmmol of SAM. Their tremor activities were recorded on the Tremor-Scan monitor for 20 min.
To determine the duration and magnitude of SAM-induced tremors, groups of cannulated rats were injected either with 1 mmmol of SAM or with 5 mml of PBS, as control. The animals were monitored on the Tremor-Scan Monitor for a duration of 2 h starting immediately after the injections.

[6] = 1 mmmol FC analog icv 5 min before 1 mmmol SAM
[7] = 1.5 mmmol L-DOPA icv before 0.75 mmmol SAM, or SAM alone
[8] = 1 mmmol NADA or SAH icv followed by 1 mmmol SAM, or SAM alone
[9] = 0 mmmol FC analog followed by 1 mmmol SAM
[10] = 1 mmmol SAM icv, first 10 min interval of 2 h recording
[11] = 20 min, re-analysis with minimum amplitude 20 and minimum cycles per activity 20
[12] = SAM icv, 20 min recording, frequency window 8 to 20, minimum amplitude 10, minimum 10 cycles
[13] = raw data, 20 min monitoring, minimum amplitude 10, minimum cycles 10

Compound: CC(=O)N[C@@H](CSC/C=C(\C)CC/C=C(\C)CCC=C(C)C)C(=O)O [AFC, N-acetyl-S-farnesyl-L-cysteine]
- tremors observed (SAM-induced tremors [1]; 0.5 mmmol FC analog icv 5 min before 1 mmmol SAM): significant reduction of tremors
- tremors observed (SAM-induced tremors [1]; [6]): no tremors
- methylation by rat nerve cell membranes in the presence of [3H-methyl]SAM (rat brain membranes): avid methyl acceptors
- movement activity (rats [2]): significantly higher degree of movement activity
- net rotations ([3]; AFC alone, no amphetamine): only few net rotations
- increase of amphetamine-induced rotation ([3]; amphetamine ip plus AFC 1 mmmol icv, versus amphetamine alone): 2 fold
- ipsiversive rotations within 90 min ([3]; amphetamine ip plus AFC 1 mmmol into the left lateral ventricle): 830±110
- ipsiversive rotations within 90 min ([3]; amphetamine ip plus AFC 1 mmmol into the right lateral ventricle): 790±160

Compound: CC(C)=CCCC(C)=CCCC(C)=CCSc1ccccc1C(=O)O [FTS, farnesylthiosalicylic acid]
- tremors observed (SAM-induced tremors [1]; [6]): significantly fewer tremors
- methylation by rat nerve cell membranes in the presence of [3H-methyl]SAM (rat brain membranes): never methylated
- inhibition of the methylation of AFC and FTP (rat brain membranes; indicated concentrations of FTS): dose-dependently inhibited

Compound: N[C@@H](Cc1ccc(O)c(O)c1)C(=O)O [L-DOPA, L-dihydroxyphenylalanine]
- number of tremors (SAM-induced tremors [4]; [7]): 25±4
- total duration of tremors (SAM-induced tremors [4]; [7]): 111 ± 22 s
- effect on the SAM-induced PD-like symptoms (SAM-induced tremors [4]): little or no effect

Compound: C[n+]1ccc(-c2ccccc2)cc1 [MPP^+, 1-methyl-4-phenylpyridinium ion]
- effect on association of [3H-methyl]SAM radioactivity with membranes (rat nerve cell membranes): No effect

Compound: CC(=O)NCCc1ccc(O)c(O)c1 [NADA, N-acetyldopamine]
- total duration of tremors (SAM-induced tremors [4]; [8]): 200±43
- effect on the SAM-induced PD-like symptoms (SAM-induced tremors [4]): little or no effect

Compound: Nc1ncnc2c1ncn2[C@@H]1O[C@H](CSCC[C@H](N)C(=O)O)[C@@H](O)[C@H]1O [SAH, S-adenosyl-L-homocysteine]
- total duration of tremors (SAM-induced tremors [4]; [8]): 212±52
- effect on the SAM-induced PD-like symptoms (SAM-induced tremors [4]): little or no effect
- radioactivity associated with the membranes in presence of competitor (rat nerve cell membranes; [3H-methyl]SAM, 100 mmM competitor in the incubation mixture): about 2000 DPM
- effect on 3H-MPP+ association with membranes (rat nerve cell membranes): little affected

Compound: C[S+](CC[C@H](N)C(=O)O)C[C@H]1O[C@@H](n2cnc3c(N)ncnc32)[C@H](O)[C@@H]1O (stereo partly drawn) [SAM, S-Adenosyl-L-methionine]
- duration of tremors (SAM-induced tremors [1]; [9]): 310 ± 70 s
- number of tremors (SAM-induced tremors [1]; [9]): 46±10
- total duration of tremors (SAM-induced tremors [4]; [8]): 273±128
- number of tremors (SAM-induced tremors [4]; [7]): 33±7
- total duration of tremors (SAM-induced tremors [4]; [7]): 170 ± 34 s
- change of membrane-associated radioactivity after addition of non-radioactive compound (reversibility) (rat nerve cell membranes; 100 mmM non-radioactive SAM added after 2 h incubation with [3H-methyl]SAM): neither increased nor decreased
- effect on association of [3H-methyl]SAM radioactivity with membranes (rat nerve cell membranes): inhibited
- effect on 3H-MPP+ association with membranes (rat nerve cell membranes): little affected
- number of tremors (rats [5]; 0.5 mmmol SAM icv, 20 min): minimal
- total duration of tremors (rats [5]; 0.5 mmmol SAM icv, 20 min): minimal
- increase in number of tremors (rats [5]; 0.75 mmmol SAM icv, 20 min): 7 fold
- increase in total duration of tremors compared to the 0.5 mmmol injection (rats [5]; 0.75 mmmol SAM icv, 20 min): 9 fold
- rate of tremor episodes during the first 10 min (rats [5]; 1 mmmol SAM icv): about 2 episodes per min
- time that abnormal posture, hypokinesia and rigidity remained (rats [5]; 1 mmmol SAM icv): about 90 min
- increase in number of tremors (rats [5]; 1 mmmol SAM icv, 20 min): 8 fold
- increase in total duration of tremors compared to the 0.5 mmmol injection (rats [5]; 1 mmmol SAM icv, 20 min): 12 fold
- number of tremors in the first 10 min interval (rats [5]; [10]): 19±4
- total duration of tremors within the first 10 min (rats [5]; [10]): 120 ± 20 s
- number of tremor activities (rats [5]; [11]): 70±8
- total duration of tremor activity (rats [5]; [11]): 360 ± 18 s
- average amplitude (rats [5]; [12]): 42.3±5
- frequency (rats [5]; [12]): 12±0.1
- number of cycles (waves) per activity (rats [5]; [12]): 54±6
- time to onset of tremors, hypokinesia, rigidity and abnormal posture after injection (rats [5]; SAM into the lateral ventricle): 0.5 to 2 min
- number of activities (rats [5]; [13]): 92±12
- total duration of tremors (rats [5]; [13]): 470 ± 50 s

Compound: C[S+](CC[C@H](N)C(=O)[O-])C[C@H]1O[C@@H](n2cnc3c(N)ncnc32)[C@H](O)[C@@H]1O (stereo partly drawn) [[^3H-methyl]SAM, S-[methyl-^3H]-SAM]
- radioactivity associated with the membranes (rat nerve cell membranes; [3H-methyl]SAM incubated with rat nerve cell membrane preparation, no competitor): about 6000 DPM

Compound: C[C@H](N)Cc1ccccc1 [amphetamine, d-amphetamine sulfate]
- ipsiversive rotations within 90 min ([3]; amphetamine ip (5 mg/kg) alone, 7 days after intrastriatal 6-OHDA): 390±130
